This note sets out measurements from the METLIN SMRT retention time set (Domingo-Almenara et al. 2019).

The structures appear in SMILES notation.

The series in a line: gradient 5% acetonitrile 3 min, to 50% in 2 min, to 85% in 15 min, held 3 min, 100 µL/min. As to conditions: column: Zorbax Extend-C18 2.1 x 50 mm; eluents: water / acetonitrile, 0.1% formic acid. The essentials: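 In both positive and negative ionization mode, a quadrupole time-of-flight mass spectrometer coupled to HPLC analyzed pure standards run in mixtures of ~100 molecules. The Zorbax Extend-C18 column (2.1 × 50 mm, 1.8 μm) was operated at 100 μL/min with water and acetonitrile, each containing 0.1% formic acid. The dead volume was 40 μL and the dwell volume 900 μL. Retention time came from adduct peaks that were computationally picked and individually inspected by hand.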
`COc1ccc(NC(=O)c2noc3c2CC(C)CC3)cc1OC` (stereo not given) gave an RP-LC retention time of 895 s. Molecule `CCOC(=O)c1ccc(OC(=O)CCCCCN=C(N)N)cc1` came in with an RP-LC retention time of 750 s. The result for `O=[N+]([O-])c1ccccc1CSc1nnc2sc3ccccc3n12` reads 788 s. The result for `CC(C)NC(=O)CC1Sc2ncccc2N(C)C1=O` (stereo not given) reads 604 s; that for `CCn1nccc1C(=O)Nc1ccc(-c2nnc3n2CCCC3)cc1`, 1010 s. `Cn1nc(-c2nnc(-c3ccccc3Cl)o2)c2c1CCN(C(=O)COc1ccccc1)C2` gave an RP-LC retention time of 864 s. To `COc1ccc(-c2c(C)noc2NC(C)=O)cc1S(=O)(=O)N1CCCc2ccccc21` belongs 856 s.

In turn, `CCOc1ccc(N2C=C(C(=O)OC)S(=O)(=O)c3ccccc32)cc1` had an RP-LC retention time of 887 s. The result for `O=C(COc1ccccc1)N1CCC(OCc2nc(C3CC3)no2)CC1` reads 817 s. The result for `CC(C)OCCCNC(=O)Cn1c2ccccc2c2cnn(C)c(=O)c21` reads 745 s; that for `COc1ccc(S(=O)(=O)N2CCCC(C(=O)N3CCOCC3)C2)cc1OC` (stereo not given), 681 s. The result for `O=c1ccc(-c2ccc(F)cc2)nn1CCc1nc(-c2ccc(Br)cc2)no1` reads 1110 s; that for `O=C(Nc1cccc2ccccc12)c1ccc(F)cc1`, 812 s; that for `CCCCN1CC(c2nc3ccccc3n2CCOc2ccccc2OC)CC1=O` (stereo not given), 750 s. In turn, `CCn1c(=O)c(C(=O)NCCCOC(C)C)nc2cccnc21` registered an RP-LC retention time of 728 s. The result for `CCn1cnc(S(=O)(=O)N2CCCC(C(=O)N3CCN(c4ccc(F)cc4)CC3)C2)c1` (stereo not given) reads 752 s; that for `CCOC(=O)Cc1csc(NC(=O)C2CC(=O)N(c3n[nH]c4cccc(F)c34)C2)n1` (stereo not given), 699 s.

In the case of `Cc1csc(-c2cc(S(=O)(=O)NCCCN3CCC(C)CC3)c(C)s2)n1`, the RP-LC retention time stood at 675 s. The result for `COc1cc(NC(=O)Cn2cccc2-c2nnc(C3CC3)o2)cc(OC)c1` reads 802 s; that for `Cc1ccn2cc(-c3ccc(NC(=O)c4ccccc4)cc3)nc2n1`, 636 s. In the case of `O=C(Nc1ccc(Br)cc1F)C1CCCN(c2cnc3ccccc3n2)C1` (stereo not given), the RP-LC retention time stood at 1070 s. To `COc1ccc(CN(CCC2(C(C)C)CCOC(C)(C)C2)C(C)=O)cc1` (stereo not given) belongs 987 s; to `COc1ccc(CCC(=O)N2CCC3(C2)C(=O)N(C)c2ccc(OC)cc23)cc1` (stereo not given), 800 s; to `COC(=O)c1cc(C)nc2c1c(=O)n(Cc1ccc(OC)cc1)c(=O)n2C`, 953 s. As to `CC(NC(=O)C1CCCN(c2nccnc2Oc2ccccc2)C1)c1ccccc1` (stereo not given), the RP-LC retention time amounted to 986 s. The result for `Cc1ccccc1NS(=O)(=O)c1cc(-c2[nH]ncc2C(=O)N2CCOCC2)oc1C` reads 678 s; that for `COc1ccc(N2CC(c3noc(-c4cc(OC)c(OC)c(OC)c4)n3)CC2=O)cc1` (stereo not given), 787 s; that for `O=C(NCc1ccc2c(c1)OCO2)C1=C2CCCN2c2ccccc2S1(=O)=O`, 805 s. For `CSc1ccc(Cc2nnc(NC(=O)c3cccc(C(F)(F)F)c3)o2)cc1`, the RP-LC retention time came out at 907 s. With `Cc1ccc(CNC(=O)Cc2nnc(-c3ccc4ncccc4c3)o2)cc1C`, the RP-LC retention time turned out to be 915 s. The molecule `COc1ccc(-c2nc(C3CC(=O)N(c4ccc(C)cc4)C3)no2)cn1` (stereo not given) yielded an RP-LC retention time of 946 s.

Consider `Cc1cc(N2CCN(S(=O)(=O)c3ccc(F)cc3F)CC2)nc(NC2CCCCC2)n1`, for which the RP-LC retention time was 805 s. The result for `COc1cccc(NC(=O)Cn2c(C)nc3onc(C)c3c2=O)c1` reads 708 s.

The molecule `O=C(Nc1cnc(-c2ccc(Cl)cc2)nc1)c1ccc(Br)o1` displayed an RP-LC retention time of 1120 s.

The molecule `Cc1ccc(CNC(=O)Cn2c3ccccc3c3cnn(C)c(=O)c32)o1` yielded an RP-LC retention time of 925 s.

With `CN(Cc1ccco1)C(=O)C1CCCN(c2ncnc3c2nc2n3CCCCC2)C1` (stereo not given), the RP-LC retention time is 738 s.

The molecule `CC(C)Cn1cc(CCNS(=O)(=O)c2cccc(Br)c2)c2cccnc21` yielded an RP-LC retention time of 990 s. To `O=C(c1ccc[nH]1)N1CCC2(CC1)NC(=O)N(Cc1cccc(Cl)c1)C2=O` belongs 769 s; to `Cc1noc(-c2cc(=O)n(CC(=O)NCc3ccc(Cl)cc3)c3ccccc23)n1`, 888 s.

Molecule `COCc1c(C(=O)N2CCCC2Cc2noc(C3CCCC3)n2)noc1C` (stereo not given) showed an RP-LC retention time of 922 s. `Cc1ccc(-c2nc3ncccn3c2NCc2ccccc2)cc1C` displayed an RP-LC retention time of 785 s. To `COc1ccc(C2(C(=O)N3CC[C@@H]4CN(Cc5ccccc5)[C@@H]4C3)CC2)cc1` belongs 652 s; to `Cc1ccc(NC(=O)C2CCN(c3nnc4ccc(Cl)cn34)CC2)c(F)c1`, 749 s; to `COC(=O)c1ccccc1NC(=O)c1cnc2c(c1)c(=O)n(C)c(=O)n2-c1ccccc1`, 1030 s. The result for `Cc1nn(Cc2nc(-c3ccc(NC(=O)C4CCCCC4)cc3)oc2C)c(C)c1C` reads 1020 s; that for `CCOc1ccccc1-c1noc(Cn2c(=O)n(CC)c(=O)c3ccccc32)n1`, 983 s. `COCC(=O)NCC12CCCC=C1NC(=O)CC2` (stereo not given) had an RP-LC retention time of 605 s. For the molecule `O=C1COc2ccc(S(=O)(=O)N3CCCC3C(=O)Nc3ccc(F)c(Cl)c3)cc2N1` (stereo not given), the RP-LC retention time is 845 s. With `CN(C)C[C@@H]1CN(c2ccncn2)C[C@H]1NC(=O)c1nccc2ccccc12`, the RP-LC retention time amounted to 557 s. To `COc1cc(OC)cc(N2C(=O)C3N=NN(Cc4nc(-c5ccccc5Cl)no4)C3C2=O)c1` (stereo not given) belongs 967 s; to `Cc1ccc2nc(-c3ccc(NS(=O)(=O)c4cn(C)c(=O)n(C)c4=O)cc3)sc2c1`, 870 s. The result for `CCCn1cc(CCNS(=O)(=O)c2ccc(F)c(F)c2)c2cccnc21` reads 884 s.

In turn, `CCCn1nc(-n2cnnc2)c(NC(=O)c2cc(OC)cc(OC)c2)c1C` had an RP-LC retention time of 682 s. The result for `Cc1ccsc1C(=O)NCC(=O)Nc1nc2ccccc2[nH]1` reads 613 s.

Regarding `CCN1C(=O)c2cccnc2Sc2cc(NC(=O)c3cccc(OC)c3)ccc21`, the RP-LC retention time is 826 s. The result for `COc1ccc(Cl)cc1NC(=O)CSc1nnc2c3cc(-c4ccc(F)cc4)nn3ccn12` reads 996 s; that for `CNc1nc(Nc2cn(C(C)(C)C#N)nc2C)ncc1C(F)(F)F`, 696 s; that for `CC(C)c1ccc(-n2c3c(cc(C(=O)N4CCOCC4)c2=O)C(=O)CCC3)cc1`, 722 s. In turn, `Nc1nc(=O)n(C2CS[C@H](CO)O2)cc1F` (stereo not given in full) returned an RP-LC retention time of 571 s. `COc1ccc(CCC(=O)N2CCC3(C2)C(=O)N(C)c2ccccc23)cc1` (stereo not given) displayed an RP-LC retention time of 872 s. To `CCc1nn(CC)c(=O)c2cc(S(=O)(=O)NCc3ccc(F)cc3Cl)cn12` belongs 1020 s; to `CC1CCN(S(=O)(=O)c2cccc(-c3nnc(-c4ccc(Cl)cc4)o3)c2)CC1`, 1250 s. To `CCCNc1nccn(C(C)C)c1=O` belongs 544 s; to `CCCNC(=O)C1CCN(c2cc(SCC(=O)Nc3ccc(C(=O)OCC)cc3)ncn2)CC1`, 781 s; to `COc1ccc(CC(C)(O)CNC(=O)c2cc(C)oc2C)cc1` (stereo not given), 739 s.

In the case of `COc1cccc(C(=O)N2CCC3(CC2)NC(=O)c2ccc(Cl)cc2N3)c1`, the RP-LC retention time came out at 746 s.

`CC(C)CN1CCn2cc(C(=O)N3CCN(c4ccccn4)CC3)nc2C1`: the RP-LC retention time was 526 s. To `N#Cc1cccc(C(=O)N2CCN3CCS(=O)(=O)N(C4CC4)C(=O)C3C2)c1` (stereo not given) belongs 714 s; to `CCOC(=O)COc1cc(-c2ccccc2)nc2ccc(NC(=O)C3CC3)cc12`, 738 s. `Cc1nc(-c2cc(S(=O)(=O)NCC(=O)NCc3ccccc3Cl)c(C)s2)no1` displayed an RP-LC retention time of 870 s.

With `Cc1c(C(=O)N2CCN(c3ccccn3)CC2)oc2ccc3c(c12)C(=O)CC1(CCCCCC1)O3`, the RP-LC retention time worked out at 879 s.

On to `CC(C)c1noc(-c2ccnc(-n3cnc(C(=O)NCC4CC4)c3)c2)n1`, for which the RP-LC retention time turned out to be 879 s. The result for `COc1cccc(-c2nc(C3CCN(C(=O)C4COc5ccccc5O4)CC3)no2)c1` (stereo not given) reads 1060 s. To `CCn1c(=O)sc2cc(S(=O)(=O)N3CCC(C(=O)Nc4ccc(F)c(Cl)c4)CC3)ccc21` belongs 1010 s; to `Cc1cc(C)n2nc(CN(C(=O)c3ccco3)c3cccc(Cl)c3)nc2n1`, 776 s; to `CCn1nc(C)c(-c2cc(C(=O)O)[nH]n2)c1C`, 589 s. The result for `O=C(NCc1cccnc1)c1cc(N2CCCC2)n2nccc2n1` reads 534 s; that for `CCOC(=O)c1c(C)[nH]c(CCC(=O)NCCN2CCCCCC2)c1C`, 621 s; that for `COc1ccc2c(c1)C=C(C(=O)Nc1ccc(OC)cc1OC)C=CO2`, 699 s. `COc1ccc(N2CCN(C(=O)c3cc4c(-c5cccs5)nn(-c5ccccc5)c4n3C)CC2)cc1` showed an RP-LC retention time of 1120 s.
